Laboratory results reported in patent US20110178396A1, “Nicotinamide Derivatives” (CRC FOR BIOMEDICAL IMAGING DEVELOPMENT LTD., priority 2008, published 2011).

Columns and labels:
[1] = tested on: melanoma tumour; settings: melanoma tumour bearing mice, cited from earlier work
[2] = tested on: B16F0 melanoma tumour; assay: Biodistribution in B16 melanoma bearing mice; type: in vivo, C57BL/6J mice; settings: C57BL/6J mice; for Organ distribution Intestine / Organ distribution Liver / Organ distribution Spleen / Organ distribution Stomach / Organ distribution Thyroid / Organ distribution Tumour: B16F0 tumour, mean ± S.D.; for Organ distribution Intestine / Organ distribution Liver / Organ distribution Spleen / Organ distribution Stomach / Organ distribution Thyroid / Organ distribution Tumour / Uptake Lung / uptake BLOOD / uptake BRAIN / uptake HEART / uptake KIDNEY / uptake LIVER / uptake TUMOUR: n = 5; for tumour standardized uptake value (SUVt) / Uptake Lung / uptake BLOOD / uptake BRAIN / uptake HEART / uptake KIDNEY / uptake LIVER / uptake TUMOUR: B16 tumour; for Uptake Lung / uptake BLOOD / uptake BRAIN / uptake HEART / uptake KIDNEY / uptake LIVER / uptake TUMOUR: mean ± SD
Protocol: Animal experiments were performed in compliance with the NHMRC Australian Code of Practice for the care and use of animals for scientific purposes. Female C57BL/6J black and BALB/c nude albino mice of 5 weeks age were obtained from the Animal Resources Centre, Western Australia. B16F0 murine melanoma cells were originally obtained from European Collection of Cell Cultures (UK) and A375 human amelanotic melanoma cells were originally obtained from American Type Culture Collection (USA). Before transplantation, B16F0 and A375 melanoma cells were maintained as a monolayer in RPMI culture medium supplemented with 10% foetal calf serum and antibiotics and passaged with trypsinisation. Early passages were frozen and stored in liquid nitrogen. Cells were passaged to P=10 and then discarded. Frozen aliquots were grown in a monolayer culture to between 80-95% confluence and for transplantation were trypsinised and washed with Ca^2+ and Mg^2+ free phosphate buffered saline (PBS). For inoculation, B16F0 melanoma cells were resuspended in Ca^2+ and Mg^2+ free PBS at 3 or 5×10^6 viable cells per ml and 0.1 ml was subcutaneously injected at the left flank of 6-7 weeks old C57BL/6J mice. Eleven days later, tumours could be palpated in >98% of inoculated animals. A375 human melanoma cells were resuspended at 1×10^7 viablecells per ml and 0.1 ml was injected subcutaneously at the left flank of 6 weeks old BALB/c nude mice and 25-26 days later tumours could be palpated with ˜60% of inoculated animals developing tumours.
Eleven days (B16F0 melanoma) and 25 days (A375 human melanoma) after tumour transplantation, the [^18F]nicotinamides (0.5-1.5 MBq, 100 μl) and [^123I]nicotinamide (0.37-0.74 MBq, 100 μl) derivatives were injected intravenously via the tail vein into mice (15-18 g). Time points of 1, 3, 6, 24, 48, 72 h after injection were chosen for determining the distribution of each compound in various organs and tissues for the iodine-123 labelled compounds and between 15 min and 6 hours (e.g. 15 min, 30 min, 1 h, 2 h, 4 h or 6 h) were chosen for the ^18F-labelled compounds. At defined times post injection, groups of mice (n=5) were weighed, sacrificed by CO2 administration followed by cervical dislocation and dissected. Selected organs were weighed and their radioactivity measured with a γ-counter. The remaining activity in the carcass was also determined in order to obtain the total activity in the mouse at defined time points. The fraction of injected activity (% ID) in the organ was calculated by comparison with suitable dilutions of the injected dose. Then, the radioactivity concentration in the organ (% ID/g) was found by dividing the % ID for each organ by the weight of the organ.

CCN(CC)CCNC(=O)c1ccc([18F])cc1 [structure A]
reported tumour uptake ([1]; at 2 h): 6.5 % ID/g
Typical Tumour: Blood ratio [1]: 12

O=C(c1cncc(I)c1)N1CCN(Cc2ccccc2)CC1 [[^123I]20, (4-Benzylpiperazin-1-yl)(5-iodopyridin-3-yl)methanone]
Organ distribution Intestine ([2]; 1 h): 58 ± 2 % ID/organ
Organ distribution Liver ([2]; 1 h): 3.6 ± 0.9 % ID/organ
Organ distribution Spleen ([2]; 1 h): 0.05 ± 0.01 % ID/organ
Organ distribution Stomach ([2]; 1 h): 1.7 ± 0.6 % ID/organ
Organ distribution Thyroid ([2]; 1 h): 0.30 ± 0.08 % ID/organ
Organ distribution Tumour ([2]; 1 h): 2.6 ± 1.0 % ID/organ
Organ distribution Intestine ([2]; 6 h): 30 ± 3 % ID/organ
Organ distribution Liver ([2]; 6 h): 1.9 ± 0.4 % ID/organ
Organ distribution Spleen ([2]; 6 h): 0.04 ± 0.02 % ID/organ
Organ distribution Stomach ([2]; 6 h): 4 ± 3 % ID/organ
Organ distribution Thyroid ([2]; 6 h): 1.1 ± 0.4 % ID/organ
Organ distribution Tumour ([2]; 6 h): 1.7 ± 0.5 % ID/organ
Organ distribution Intestine ([2]; 24 h): 0.4 ± 0.1 % ID/organ
Organ distribution Liver ([2]; 24 h): 0.13 ± 0.04 % ID/organ
Organ distribution Spleen ([2]; 24 h): 0.00 ± 0.00 % ID/organ
Organ distribution Stomach ([2]; 24 h): 0.07 ± 0.02 % ID/organ
Organ distribution Thyroid ([2]; 24 h): 1.4 ± 0.6 % ID/organ
Organ distribution Tumour ([2]; 24 h): 0.36 ± 0.07 % ID/organ
tumour standardized uptake value (SUVt) ([2]; 1 h): 1.5 ± 0.4
Uptake Lung ([2]; 1 h): 0.90 ± 0.06 % ID/g
uptake BLOOD ([2]; 1 h): 0.89 ± 0.07 % ID/g
uptake BRAIN ([2]; 1 h): 0.20 ± 0.02 % ID/g
uptake HEART ([2]; 1 h): 0.49 ± 0.03 % ID/g
uptake KIDNEY ([2]; 1 h): 4.2 ± 0.6 % ID/g
uptake LIVER ([2]; 1 h): 3.6 ± 0.9 % ID/g
uptake TUMOUR ([2]; 1 h): 6.0 ± 1.6 % ID/g
tumour standardized uptake value (SUVt) ([2]; 6 h): 1.7 ± 0.5
Uptake Lung ([2]; 6 h): 0.46 ± 0.13 % ID/g
uptake BLOOD ([2]; 6 h): 0.60 ± 0.17 % ID/g
uptake BRAIN ([2]; 6 h): 0.05 ± 0.01 % ID/g
uptake HEART ([2]; 6 h): 0.24 ± 0.08 % ID/g
uptake KIDNEY ([2]; 6 h): 2.4 ± 0.4 % ID/g
uptake LIVER ([2]; 6 h): 2.2 ± 0.6 % ID/g
uptake TUMOUR ([2]; 6 h): 3.9 ± 0.9 % ID/g
tumour standardized uptake value (SUVt) ([2]; 24 h): 9 ± 2
Uptake Lung ([2]; 24 h): 0.03 ± 0.01 % ID/g
uptake BLOOD ([2]; 24 h): 0.04 ± 0.01 % ID/g
uptake BRAIN ([2]; 24 h): 0.001 % ID/g
uptake HEART ([2]; 24 h): 0.02 ± 0.01 % ID/g
uptake KIDNEY ([2]; 24 h): 0.08 ± 0.01 % ID/g
uptake LIVER ([2]; 24 h): 0.12 ± 0.02 % ID/g
uptake TUMOUR ([2]; 24 h): 1.0 ± 0.2 % ID/g
